Results published in patent publication US8299073B2, “P38 MAP kinase inhibitors” (Respivert Ltd., priority 2008, dated 2012).

How the values were obtained:
[1] = biological target: T1, recombinant, phosphorylated p38 MAPK gamma (MAPK12:Millipore) (Homo sapiens, UniProt P53778); assay: Enzyme inhibition assay (FRET, Z-LYTE), p38 MAPK gamma; type: biochemical; conditions: read-out: IC50 values P38γ enzyme
T1 construct: purchased Millipore
T1 sequence (P53778 1-367): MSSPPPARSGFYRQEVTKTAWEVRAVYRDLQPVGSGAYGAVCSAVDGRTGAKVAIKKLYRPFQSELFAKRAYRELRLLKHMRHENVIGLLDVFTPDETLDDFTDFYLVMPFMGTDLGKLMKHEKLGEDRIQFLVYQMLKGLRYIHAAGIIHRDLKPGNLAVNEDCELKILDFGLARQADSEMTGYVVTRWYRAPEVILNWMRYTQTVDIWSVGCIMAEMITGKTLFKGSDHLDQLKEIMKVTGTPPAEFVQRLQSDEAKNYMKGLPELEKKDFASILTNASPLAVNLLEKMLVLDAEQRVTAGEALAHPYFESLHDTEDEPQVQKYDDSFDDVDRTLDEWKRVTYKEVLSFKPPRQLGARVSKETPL
Protocol: The enzyme inhibitory activity of compound was determined by fluorescence resonance energy transfer (FRET) using synthetic peptides labelled with both donor and acceptor fluorophores (Z-LYTE, Invitrogen). Briefly, recombinant, phosphorylated p38 MAPK gamma (MAPK12:Millipore) was diluted in HEPES buffer, mixed with compound at desired final concentrations and incubated for two hours at room temperature. The FRET peptide (2 μM) and ATP (100 uM) were next added to the enzyme/compound mixture and incubated for one hour. Development reagent (protease) was added for one hour prior to detection in a fluorescence microplate reader. The site-specific protease only cleaves non-phosphorylated peptide and eliminates the FRET signal. Phosphorylation levels of each reaction were calculated using the ratio of coumarin emission (donor) over fluorescein emission (acceptor) with high ratios indicating high phosphorylation and low ratios, low phosphorylation levels.

[2] = system: LPS-induced TNFα release in THP-1 cells; assay: LPS-induced TNF alpha release in THP-1 cells; type: cell-based; conditions: Homo sapiens, THP-1; LPS-induced TNFα release; read-out: IC50 values THP-1 cells
Protocol: THP-1, human monocytic cell line, was also used for this assay. THP-1 cells were stimulated with 1 μg/ml of LPS (from E. coli: O111:B4, Sigma) for 4 hrs, and the supernatant collected for determination of TNFα concentration.
THP-1 cells, a human monocytic cell line, were stimulated with 1 μg/ml of LPS (from E. coli; O111:B4, Sigma) for 4 hr and the supernatant collected for determination of TNFα concentration by sandwich ELISA (Duo-set, R&D systems). The inhibition of TNFα production was calculated at each concentration by comparison with vehicle control.

[3] = biological target: T2, p38 MAPK alpha (MAPK14: Invitrogen) (Homo sapiens, UniProt Q16539); assay: Enzyme inhibition assay (FRET, Z-LYTE), p38 MAPK alpha, via activation of MAPKAP-K2; type: biochemical; conditions: read-out: IC50 values p38α enzyme
T2 construct: purchased Invitrogen

[4] = system: LPS-induced TNFα release in differentiated U937 cells; assay: LPS-induced TNF alpha release in differentiated U937 cells; type: cell-based; conditions: Homo sapiens; read-out: R-EC50 values d-U937 cells
Protocol: U937 cells, human monocytic cell line, were differentiated to macrophage-type cells by incubation with phorbol myristate acetate (PMA; 100 ng/ml) for 48 to 72 hours. Where appropriate, cells were pre-incubated with final concentrations of compound for 2 hrs. Cells were then stimulated with 0.1 μg/mL of LPS (from E. coli: O111:B4, Sigma) for 4 hrs, and the supernatant collected for determination of TNFα concentration by sandwich ELISA (Duo-set, R&D systems).

[5] = system: Differentiated U937 cells; assay: MTT assay (loss of cell viability); type: cell-based, human; conditions: loss of cell viability, 10 ug/ml
Protocol: Differentiated U937 cells were pre-incubated with compound for 4 hrs in 5% FCS or 10% FCS for 24 hrs and 72 hr. The supernatant was replaced with 200 ul of new media and 10 μL of MTT stock solution (5 mg/mL) added to each well. After 1 hr incubation, the media were removed, 200 μL of DMSO added to each well and the plates were shaken lightly for 1 hr prior to reading the absorbance at 550 nm.
The percentage loss of cell viability was calculated for each well relative to vehicle (0.5% DMSO)-treatment. Consequently an apparent increase in cell viability for drug treatment relative to vehicle is tabulated as a negative percentage.

[6] = system: neutrophil and macrophage accumulation into airways; assay: Cigarette smoke model; type: in vivo, A/J mice; conditions: 50 μg/ml (35 μl, bid, in); cigarette smoke exposed mice
Protocol: A/J mice (males, 5 weeks old) were exposed to cigarette smoke (4% cigarette smoke, diluted with compressed air) for 30 min/day for 11 days using a Tobacco Smoke Inhalation Experiment System for small animals (Model SIS-CS; Sibata Scientific Technology, Tokyo, Japan). Test substances were given intra-nasally (35 μl of solution in 50% DMSO/PBS) and therapeutically twice daily for 3 days after the final cigarette smoke exposure. Twelve hours after the last dosing, animals were anesthetized, the trachea cannulated and bronchoalveolar lavage fluid (BALF) was collected. […] The results are shown in FIG. 3 for activated alveolar macrophages and in FIG. 4 for neutrophils. Data for cell numbers are shown as the mean±SEM. The cigarette smoke model used for this study is reported as a corticosteroid refractory system, ([…]. et al., (2008); J. Pharmacol. Exp.

[7] = system: ovalbumin-mediated lung function changes (sGaw); assay: Ovalbumin challenge/parainfluenza infection model; type: in vivo, Dunkin-Hartley guinea-pigs; conditions: nebulised, 1.5 mg per day; sensitized animals treated with PIV3 medium

T2 sequence (Q16539 whole entry): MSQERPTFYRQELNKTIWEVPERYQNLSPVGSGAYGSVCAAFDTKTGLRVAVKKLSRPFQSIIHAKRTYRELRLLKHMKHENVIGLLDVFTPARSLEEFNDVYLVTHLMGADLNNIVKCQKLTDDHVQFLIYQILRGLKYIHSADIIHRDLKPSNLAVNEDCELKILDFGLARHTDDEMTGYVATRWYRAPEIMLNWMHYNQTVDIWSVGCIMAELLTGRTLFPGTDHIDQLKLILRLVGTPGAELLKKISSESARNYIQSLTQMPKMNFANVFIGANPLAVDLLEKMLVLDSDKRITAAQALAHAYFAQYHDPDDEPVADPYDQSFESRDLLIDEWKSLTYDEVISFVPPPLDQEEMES

Structure (SMILES)	IC50 [1] [nM]	IC50 [2] [nM]	IC50 [3] [nM]	EC50 [4] [nM]	MTT 4 hr [5]	MTT 24 hr [5]	inhibition of neutrophil or macrophage accumulation into airways [6]	effect on ovalbumin-mediated lung function changes [7]
COCC(=O)Nc1cc(C(C)(C)COc2ccc(NC(=O)Nc3cc(C(C)(C)C)nn3-c3ccc(C)cc3)c3ccccc23)ccn1 [Example 48, N-(4-(1-(4-(3-(3-tert-Butyl-1-p-tolyl-1-pyrazol-5-yl)ureido)naphthalen-1-yloxy)-2-methylpropan-2-yl)pyridin-2-yl)-2-methoxyacetamide]	> 5000	< 500	< 500	< 500	− (− <30%)	− (− <30%)		
COCC(=O)Nc1cc(COc2ccc(NC(=O)Nc3cc(C(C)(C)C)nn3-c3ccc(CO)cc3)c3ccccc23)ccn1 [Example 49, N-(4-((4-(3-(3-tert-Butyl-1-(4-(hydroxymethyl)phenyl)-1H-pyrazol-5-yl)ureido)naphthalen-1-yloxy)methyl)pyridin-2-yl)-2-methoxyacetamide]	< 500	< 500	< 10	< 10	− (− <30%)	+ (+ >30% at 10 ug/ml)		
COCC(=O)Nc1nccc(COc2ccc(NC(=O)Nc3cc(C(C)(C)C)nn3-c3ccc(C)cc3)c3ccccc23)n1 [Example 50, N-(4-((4-(3-(3-tert-Butyl-1-p-tolyl-1H-pyrazol-5-yl)ureido)naphthalen-1-yloxy)methyl)pyrimidin-2-yl)-2-methoxyacetamide]	> 5000	< 500	< 10	< 10	− (− <30%)	− (− <30%)		
CCC(=O)O[C@]1(C(=O)SCF)[C@H](C)C[C@H]2[C@@H]3C[C@H](F)C4=CC(=O)C=C[C@]4(C)[C@@]3(F)[C@@H](O)C[C@@]21C [fluticasone propionate]							did not inhibit	inhibited
